Test results published in PMC11274943, “Discovery of Benzisothiazolone Derivatives as Bifunctional Inhibitors of HIV-1 Reverse Transcriptase DNA Polymerase and Ribonuclease H Activities” (Biomolecules, 2024).

Assays:
[1] = test system: P236L HIV-1 RT RNase H activity; test: FRET-based RT RNase H cleavage assay, P236L RT; type: biochemical; details: P236L RT; fold resistance IC50 mutant/IC50 WT
Procedure: (§1) WT (wild-type) RT, and RTs harboring the NNRTI-resistant mutations K101E, K103N, Y181C, Y188C, G190A and P236L, were overexpressed and purified to homogeneity as described previously. The RT concentration was determined spectrophotometrically at 280 nm using an absorbance coefficient of 260,450 M^−1·cm^−1. The 7-hydroxy tropolone derivative 19,616 (2,7-dihydroxy 2,4,6-cyclo-heptatrien-1-one) was purchased from Molecular Diversity Preservation International (Basel, Switzerland). Nevirapine was purchased from Selleckchem (Houston, TX, USA). The benzisothiazolone derivatives were procured from MolPort (New York, NY, USA) or Enamine (Kyiv, Ukraine). The DNA and RNA oligonucleotides were synthesized and purified by Integrated DNA Technologies (Coralville, IA, USA). All other reagents were of the highest quality available and were used without further purification.
(§2) The following RNA/DNA T/P substrate was used in the present study: an 18-nucleotide RNA template (RNA-18T: 5′-[…]-3′) was annealed to an 18-nucleotide primer (DNA-18T: 5′-[…]-3′), as described previously. Fluorescein and IowaBlack FQTM were covalently attached to the 3′- and 5′-ter-mini of the RNA and DNA oligonucleotides, respectively.
(§3) The FRET-based RNase H cleavage assays were carried out as described previously. Fluorescence was measured with a SpectraMax M2 microplate spectrofluorometer (Molecular Devices, San Jose, CA, USA) using an excitation wavelength of 490 nm and an emission wavelength of 528 nm. Data were analyzed using SoftMax Pro software, version 4.7.1 (Molecular Devices, San Jose, CA, USA).

[2] = target: T1, P236L HIV-1 RT RNase H activity (Human immunodeficiency virus type 1 group M subtype B, UniProt P04585, P823L); test: FRET-based RT RNase H cleavage assay, P236L RT; type: biochemical
T1 construct: made in house
Procedure: as §1, §2, §3

[3] = target: T2, K101E HIV-1 RT RNase H activity (Human immunodeficiency virus type 1 group M subtype B, UniProt P04585, K688E); test: FRET-based RT RNase H cleavage assay, K101E RT; type: biochemical
T2 construct: made in house
Procedure: as §1, §2, §3

[4] = test system: K101E HIV-1 RT RNase H activity; test: FRET-based RT RNase H cleavage assay, K101E RT; type: biochemical; details: K101E RT; fold resistance IC50 mutant/IC50 WT
Procedure: as §1, §2, §3

[5] = target: T3, Y188C HIV-1 RT RNase H activity (Human immunodeficiency virus type 1 group M subtype B, UniProt P04585, Y775C); test: FRET-based RT RNase H cleavage assay, Y188C RT; type: biochemical
T3 construct: made in house
Procedure: as §1, §2, §3

[6] = test system: Y188C HIV-1 RT RNase H activity; test: FRET-based RT RNase H cleavage assay, Y188C RT; type: biochemical; details: Y188C RT; fold resistance IC50 mutant/IC50 WT
Procedure: as §1, §2, §3

[7] = test system: Y181C HIV-1 RT RNase H activity; test: FRET-based RT RNase H cleavage assay, Y181C RT; type: biochemical; details: Y181C RT; fold resistance IC50 mutant/IC50 WT
Procedure: as §1, §2, §3

[8] = target: T4, Y181C HIV-1 RT RNase H activity (Human immunodeficiency virus type 1 group M subtype B, UniProt P04585, Y768C); test: FRET-based RT RNase H cleavage assay, Y181C RT; type: biochemical
T4 construct: made in house
Procedure: as §1, §2, §3

[9] = target: T5, WT HIV-1 RT RNase H activity (Human immunodeficiency virus type 1 group M subtype B, UniProt P04585); test: biochemical; type: biochemical; details: for RNase H Activity IC50: WT RT, mean ± SD, at least three independent experiments
T5 construct: made in house
Procedure: as §1, with “Nevirapine was purchased from Selleckchem (Houston, TX, USA).” left out
Compounds were screened at a final concentration of 10 µM in 1× assay buffer (50 mM Tris pH 8.0, 60 mM KCl, 5 mM MgCl2) containing 1% DMSO in 384-well Greiner black polystyrene plates (VWR catalog # 82051-272). A total of 10 µL of intermediate diluted compounds (100 µM in 10% DMSO) was transferred into assay plates using the Evolution-3 (EP3) (Perkin Elmer, Waltham, MA, USA) automated liquid handling platform outfitted with a 384-well transfer head. A total of 40 µL of RT-RNase H enzyme (60 ng per well) were then dispensed into each well using the Titertek MAP-C2 reagent dispenser platform (Huntsville, AL, USA). A total of 50 µL of the RNA/DNA duplex (140 nM) substrate was then dispensed into each well using the MAP-C2 dispenser, and the assay plates were then incubated at room temperature for 20 min. After 20 min, the assay was terminated by the addition of 10 µL of 1 M EDTA pH 9.0 stop buffer. Relative fluorescent unit (RFU) signals, Excitation 490 nm and Emission 528 nm (Cutoff 515 nm), were captured on the Spectromax M5e plate reader (Molecular Devices, Menlo, CA, USA). […] The template also calculated the plate signal-to-background (S:B) ratios (mean maximum signal/mean minimum signal) and Z’-factor coefficient HTS performance statistics.
as §2, §3
We implemented a rapid, robust and inexpensive fluorescence-based 384-well assay for the measurement of RT RNase H activity, previously described by Parniak et al.. The substrate comprises an 18-nucleotide 3′-fluorescein-labeled heteropolymeric RNA annealed to a complementary 5′-dabcyl-modified DNA. RT cleaves the RNA strand of this substrate close to the 3′ end, promoting the dissociation of the fluorescein-labeled RNA fragment and generating a detectable fluorescent signal. We used this HTS assay to screen 65,239 compounds at a final concentration of 10 µM.

HIV-1 = test: Antiviral activity (HIV-1 replication) in TZM-bl cells; type: cell-based; details: Human immunodeficiency virus 1, mean ± SD
Procedure: The genes for Y181C, Y181I, Y181V and Y181F were cloned into HIV-1LAI. NNRTI susceptibility was determined in TZM-bl cells, as described previously.
(§4) Next, we re-purchased 10 hit compounds with IC50 values < 1.0 µM for the inhibition of RT RNase H activity that were commercially available in sufficient quantities for further analysis. We assessed their antiviral activity and cytotoxicity in TZM-bl cells, as described previously.

[10] = Cytotoxicity in TZM-bl cells; type: cell-based; details: human, TZM-bl cell death
Procedure: as §4

[11] = test system: G190A HIV-1 RT RNase H activity; test: FRET-based RT RNase H cleavage assay, G190A RT; type: biochemical; details: G190A RT; fold resistance IC50 mutant/IC50 WT
Procedure: as §1, §2, §3

[12] = target: T6, G190A HIV-1 RT RNase H activity (Human immunodeficiency virus type 1 group M subtype B, UniProt P04585, G777A); test: FRET-based RT RNase H cleavage assay, G190A RT; type: biochemical
T6 construct: made in house
Procedure: as §1, §2, §3

[13] = target: T7, WT HIV-1 RT DNA-dependent DNA polymerase activity (Human immunodeficiency virus type 1 group M subtype B, UniProt P04585); test: biochemical; type: biochemical; details: for Polymerase Activity IC50 (DNA Polymerase): WT RT, mean ± SD, at least three independent experiments
T7 construct: made in house
Procedure: as §1, with “Nevirapine was purchased from Selleckchem (Houston, TX, USA).” left out
DDDP assays were also performed using a QuantiFluor ONE based spectrophotometric assay to detect double-stranded DNA synthesized by recombinant HIV-1 RT [14]. The reaction contained 40 nM of a template/primer comprising a 200 nt DNA template (5′-[…] […]-[…]-[…] […] […]-3′) annealed to an 18-nucleotide DNA primer (5′-[…]-3′), and a mix of 50 mM Tris-HCl pH 7.8, 50 mM NaCl, 10 mM MgCl2 and 50 µM dNTP. The reactions were stopped after 45 min by adding the detection reagent containing 1 × Quant-Fluor One (Promega) and 12.5 mM ethylenediaminetet-raacetic acid; the samples were transferred to a 96-well black plate, and fluorescence was measured at excitation/emission (490/535 nm).

[14] = test system: K103N HIV-1 RT RNase H activity; test: FRET-based RT RNase H cleavage assay, K103N RT; type: biochemical; details: K103N RT; fold resistance IC50 mutant/IC50 WT
Procedure: as §1, §2, §3

[15] = target: T8, K103N HIV-1 RT RNase H activity (Human immunodeficiency virus type 1 group M subtype B, UniProt P04585, K690N); test: FRET-based RT RNase H cleavage assay, K103N RT; type: biochemical
T8 construct: made in house
Procedure: as §1, §2, §3

SMILES: Cn1sc2ccccc2c1=O [Compound 3, 2-methylbenzo[d]isothiazol-3(2H)-one]
- Inhibition of RT RNase H Activity Fold-R [1]: 0.9
- IC50 [2]: 2.2 ± 0.2 µM
- IC50 [3]: 2.2 ± 0.3 µM
- Inhibition of RT RNase H Activity Fold-R [4]: 0.9
- IC50 [5]: 5.7 ± 1.2 µM
- Inhibition of RT RNase H Activity Fold-R [6]: 2.3
- Inhibition of RT RNase H Activity Fold-R [7]: 0.8
- IC50 [8]: 2.1 ± 0.3 µM
- IC50 [9]: 2.5 ± 0.2 µM
- EC50 (HIV-1): 28.4 ± 12.3 µM
- CC50 [10]: ≥ 100 µM
- Inhibition of RT RNase H Activity Fold-R [11]: 1.0
- IC50 [12]: 2.4 ± 0.4 µM
- IC50 [13]: > 81 µM
- Polymerase Activity IC50 (DNA Polymerase) [13]: completely inactive
- Inhibition of RT RNase H Activity Fold-R [14]: 1.0
- IC50 [15]: 2.4 ± 0.2 µM

SMILES: O=c1c2ccccc2sn1-c1ccc(S(=O)(=O)N2CCCC2)cc1 [Compound 5]
- IC50 [9]: 15.4 ± 9.2 µM
- RNase H Activity IC50 [9]: modest activity
- IC50 [13]: 25 ± 25 µM
- Polymerase Activity IC50 (DNA Polymerase) [13]: modest activity

SMILES: O=c1c2ccccc2sn1-c1ccc(S(=O)(=O)N2CCCCC2)cc1 [Compound 6]
- IC50 [9]: 39.2 ± 21 µM
- RNase H Activity IC50 [9]: modest activity
- IC50 [13]: 12.2 ± 3.7 µM
- Polymerase Activity IC50 (DNA Polymerase) [13]: modest activity

SMILES: O=S(=O)(c1cccc(-c2cn3cc(Cl)ccc3n2)c1)N1CCOCC1 [Compound 7]
- IC50 [9]: > 81 µM
- IC50 [13]: > 81 µM

SMILES: CC1CN(S(=O)(=O)c2cccc(-c3cn4ccccc4n3)c2)CC(C)O1 (stereo not drawn) [Compound 8]
- IC50 [9]: > 81 µM
- IC50 [13]: > 81 µM

SMILES: Cc1ccc(-c2nc3ccccc3s2)cc1S(=O)(=O)N1CCOCC1 [Compound 9]
- IC50 [9]: > 81 µM
- IC50 [13]: > 81 µM

SMILES: O=S(=O)(c1cc(-c2nc3ccccc3s2)ccc1Cl)N1CCOCC1 [Compound 10]
- IC50 [9]: > 81 µM
- IC50 [13]: > 81 µM

SMILES: O=S(=O)(c1cccc(-c2nc3ccccc3s2)c1)N1CCCC1 [Compound 11]
- IC50 [9]: > 81 µM
- IC50 [13]: 62 ± 38 µM

SMILES: O=c1c(O)ccccc1O [Compound 19619, 2,7-dihydroxy 2,4,6-cyclo-heptatrien-1-one, reference compound]
- Inhibition of RT RNase H Activity Fold-R [1]: 1.0
- IC50 [2]: 8.9 ± 2.5 µM
- IC50 [3]: 8.1 ± 1.7 µM
- Inhibition of RT RNase H Activity Fold-R [4]: 0.9
- IC50 [5]: 5.5 ± 2.4 µM
- Inhibition of RT RNase H Activity Fold-R [6]: 0.6
- Inhibition of RT RNase H Activity Fold-R [7]: 1.4
- IC50 [8]: 12.1 ± 1.6 µM
- IC50 [9]: 8.7 ± 3 µM
- Inhibition of RT RNase H Activity Fold-R [11]: 0.8
- IC50 [12]: 7.1 ± 1.9 µM
- Inhibition of RT RNase H Activity Fold-R [14]: 1.1
- IC50 [15]: 9.4 ± 0.9 µM
